According to publication PMC9010562, “Designing a Novel Functional Peptide With Dual Antimicrobial and Anti-inflammatory Activities via in Silico Methods” (Frontiers in Immunology, 2022):
Ends that are not written are not given here.

Assays:
[1] = tested on: methicillin-resistant S. aureus ATCC 33591 (MRSA); format: cell-based, Staphylococcus aureus; conditions: two-fold broth microdilution in MHB, 2×10^5 CFU/mL, 37°C, 18 h (24 h in the source), OD 600 nm; triplicate
Description: Every strain used in the study was purchased from the Korean Culture Center of Microorganisms (KCCM, Seoul, Korea) or the American Type Culture Collection (ATCC, Manassas, VA, USA). The following bacterial strains were used in this study: Escherichia coli KCCM 11234 (E. coli), Pseudomonas aeruginosa ATCC 9027 (P. aeruginosa), Bacillus cereus KCCM 21366 (B. cereus), Staphylococcus aureus KCCM 11335 (S. aureus), and methicillin-resistant S. aureus ATCC 33591 (MRSA). Bacterial strains were maintained in tryptic soy broth (TSB, Difco Laboratories, Detroit, MI, USA) and cultured under shaking incubation at 37°C. In addition, the following human cell lines were used in this study: THP-1 monocytes (ATCC TIB-202), primary adipose-derived mesenchymal stem cell (hADMSC; CEFO Co., Seoul, Korea), normal bronchial epithelial cells BEAS-2B (ATCC CRL-9609), and lung carcinoma cells H460 (ATCC HTB-177). […]
Two-fold broth microdilution assays were performed to measure the MIC values of the peptides. […] The plates were incubated at 37°C for 18 h, and the bacterial growth was measured at 600 nm using a microplate reader (Molecular Devices, Sunnyvale, CA, USA). […] Relative colony formation was measured by counting colonies formed on agar plates, and was compared with the control plate for the relative expression.

[2] = Serum stability test (SDS-PAGE); format: in vitro ADME; conditions: 25 μg peptide in 20 μL with 10% human serum (also 2%, 5%), 37°C, 12 h (also 1, 4 h); SDS-PAGE 12% gel, Coomassie staining
Description: Peptide stability in human serum (HS, Sigma-Aldrich) was tested by sodium dodecyl sulfate-polyacrylamide gel electrophoresis (SDS-PAGE) ([25]). 25 μg of peptides were incubated with 2%, 5%, and 10% of HS in a total volume of 20μL. The samples, peptide control, HS controls were incubated at 37°C for 1, 4, 12 h and were mixed with 5 × protein sample buffer. The samples were loaded in 12% SDS gel along with Prosi prestained protein marker (GenDEPOT, Katy, TX, USA). After separation, gels were stained with Coomassie Brilliant Blue R-250 staining solution (Bio-Rad, Hercules, CA, USA). Gels were destained and imaged by ChemiDoc™ Imaging Systems (Bio-Rad).

[3] = tested on: Staphylococcus aureus KCCM 11335; format: cell-based; conditions: two-fold broth microdilution in MHB, 2×10^5 CFU/mL, 37°C, 18 h (24 h in the source), OD 600 nm; triplicate
Description: (§1) Every strain used in the study was purchased from the Korean Culture Center of Microorganisms (KCCM, Seoul, Korea) or the American Type Culture Collection (ATCC, Manassas, VA, USA). The following bacterial strains were used in this study: Escherichia coli KCCM 11234 (E. coli), Pseudomonas aeruginosa ATCC 9027 (P. aeruginosa), Bacillus cereus KCCM 21366 (B. cereus), Staphylococcus aureus KCCM 11335 (S. aureus), and methicillin-resistant S. aureus ATCC 33591 (MRSA). Bacterial strains were maintained in tryptic soy broth (TSB, Difco Laboratories, Detroit, MI, USA) and cultured under shaking incubation at 37°C. In addition, the following human cell lines were used in this study: THP-1 monocytes (ATCC TIB-202), primary adipose-derived mesenchymal stem cell (hADMSC; CEFO Co., Seoul, Korea), normal bronchial epithelial cells BEAS-2B (ATCC CRL-9609), and lung carcinoma cells H460 (ATCC HTB-177). THP-1 and H460 cells were cultured in RPMI 1640 medium (Welgene Inc., Gyeongsan, Gyeongsangbuk-do, Korea) supplemented with 10% fetal bovine serum (Gibco), 1% penicillin and streptomycin (Gibco), and sodium pyruvate (Welgene Inc.). hADMSC and BEAS-2B cells were cultured in CEFOgro™ Human MSC Growth Medium (CEFO Co.) and BEGM™ Bronchial Epithelial Cell Growth Medium BulletKit™ (Lonza, Basel, Switzerland), respectively. The cells were maintained under humidified air with 5% CO2 at 37°C.
(§2) Two-fold broth microdilution assays were performed to measure the MIC values of the peptides. In brief, the strains were grown to an exponential phase in MHB at 37°C and then diluted to reach 2×10^5 CFU/mL in fresh media. Peptides were serially diluted in PBS and then added of 50 μL/well to a 96-well plate. An equal volume of bacterial suspensions was added to each well, resulting in final concentrations of peptides ranging from 1 to 32 μM. The wells only with the medium served as blank, while adding the medium to inoculant was used as control. The plates were incubated at 37°C for 18 h, and the bacterial growth was measured at 600 nm using a microplate reader (Molecular Devices, Sunnyvale, CA, USA). […] To perform colony forming assay, different concentrations of peptides were mixed with an equal volume of bacterial suspensions, resulting in 2×10^5 CFU/mL. The samples were spread onto tryptic soy agar (TSA, Difco Laboratories) plates after 3 h incubation and incubated overnight at 37°C. Relative colony formation was measured by counting colonies formed on agar plates, and was compared with the control plate for the relative expression.

[4] = tested on: Pseudomonas aeruginosa ATCC 9027; format: cell-based; conditions: two-fold broth microdilution in MHB, 2×10^5 CFU/mL, 37°C, 18 h (24 h in the source), OD 600 nm; triplicate
Description: as §1, §2

[5] = tested on: Escherichia coli KCCM 11234; format: cell-based; conditions: two-fold broth microdilution in MHB, 2×10^5 CFU/mL, 37°C, 18 h (24 h in the source), OD 600 nm; triplicate
Description: as §1, §2

[6] = tested on: Bacillus cereus KCCM 21366; format: cell-based; conditions: two-fold broth microdilution in MHB, 2×10^5 CFU/mL, 37°C, 18 h (24 h in the source), OD 600 nm; triplicate
Description: as §1, §2

BEAS-2B cells = assay: WST-8 cell viability assay; format: cell-based, human; conditions: WST-8, 24 h treatment
Description: as §1
(§3) THP-1, hADMSC, BEAS-2B, and H460 cells were seeded in 96-well plates at a density of 1×10^5 cells/mL to evaluate the cytotoxic effect of the peptides. Different concentrations of peptide were treated and incubated for 24 h. Quanti-Max WST-8 Cell Viability assay solution (Biomax, Seoul, Korea) was added to each well, and then the plate was incubated for 1 h. The absorbance was read at 450 nm using a microplate reader (Molecular Devices), and the relative cell viability was calculated.

H460 cells = assay: WST-8 cell viability assay; format: cell-based, human; conditions: WST-8, 24 h treatment
Description: as §1, §3

hADMSC cells = assay: WST-8 cell viability assay; format: cell-based, human; conditions: WST-8, 24 h treatment
Description: as §1, §3

THP-1 cells = assay: WST-8 cell viability assay; format: cell-based, human; conditions: WST-8, 24 h treatment
Description: as §1, §3

bovine red blood cells = assay: Hemolytic activity; format: cell-based; conditions: bovine RBCs 4% (v/v) in PBS, peptide up to 50 μM, 37°C 1 h, relative to 0.1% Triton X-100 (100%), absorbance 450 nm
Description: The hemolytic activity of the peptide was tested using bovine red blood cells (RBCs) purchased from Innovative Research (Novi, MI, USA). RBCs were diluted in PBS to obtain a 4% (v/v) suspension and were aliquoted at 100 μL per microtube. The RBC suspensions were mixed with an equal volume of 2-fold peptides and incubated at 37°C for 1 h. PBS and 0.1% Triton X-100 served as the negative control (0% hemolysis) and positive control (100% hemolysis), respectively. The tubes were centrifuged at 3,000 × g for 10 min at 4°C, and the supernatants were transferred to a 96-well microplate. The absorbance (Ab) was measured at 450 nm using a microplate reader (Molecular Devices). The hemolytic activity of each peptide was calculated by (Abpeptide – AbPBS)/(AbTriton X-100 – AbPBS) × 100.

Sequence | MIC MRSA [1] [µM] | Stability in human serum [2] | MIC S. aureus [3] [µM] | MIC P. aeruginosa [4] [µM] | MIC E. coli [5] [µM] | MIC B. cereus [6] [µM] | Concentration from which a significant cytotoxic effect was seen, BEAS-2B (normal cell line) (BEAS-2B cells) [nM] | Concentration from which cell viability was significantly affected, H460 (H460 cells) [nM] | Concentration from which a significant cytotoxic effect was seen, hADMSC (primary cell line) (hADMSC cells) [nM] | Concentration from which a significant cytotoxic effect was seen, THP-1 (THP-1 cells) [nM] | Hemolysis (bovine red blood cells) | Concentration up to which cell viability was not affected, BEAS-2B (BEAS-2B cells) [nM] | Concentration up to which cell viability was not affected, H460 (H460 cells) [nM] | Concentration up to which cell viability was not affected, hADMSC (hADMSC cells) [nM] | Concentration up to which cell viability was not affected, THP-1 (THP-1 cells) [nM]
FKGLAKLLKIGLKALAKVIQ [Ak-N’] | 2 | exhibited stability | 0.2 | 2 | 2 | 4 | 2000 | 500 | 2000 | 5000 | over 50% | – | – | – | –
NKGLAKLLKIGLKALESVIQ [Ak-N’m] | 32 | exhibited stability | 8 | 8 | 2 | 32 | – | – | – | – | below 5% | 2000 | 2000 | 2000 | 10000
